Experiments:
Meloidogyne incognita = assay: Critical concentration test (soil treatment, lettuce root galls); type: in vivo; conditions: active compound concentration of 20 ppm in soil, greenhouse 25° C., evaluated after three weeks
Method: Critical Concentration Test [table] To produce a suitable preparation of active compound, 1 part by weight of active compound is mixed with the stated amount of solvent, the stated amount of emulsifier is added and the concentrate is diluted to the desired concentration. The preparation of active compound is intimately mixed with the soil which is contaminated with the test nematodes. The concentration of the active compound in the preparation is here virtually unimportant, only the amount of active compound per volume unit of soil, which is stated in ppm (=mg/l), is decisive. The treated soil is filled into pots, lettuce is sown in and the pots are kept at a greenhouse temperature of 25° C. After three weeks, the roots of the lettuces are examined for infestation by nematodes (root galls), and the efficacy of the active compound in % is determined. The efficacy is 100% when infestation is avoided completely and 0% when the infestation level is just as high as in the control plants in untreated, but equally infested, soil.

- melting point: 125 °C
Compound: CC(=NC#N)NC(C)c1ccc(Cl)cc1 (centres unmarked) [Preparation Example 1, [R]-N-cyano-N′-(4-chlorophenyl-eth-1-yl)-ethaneimidamide]
- kill (efficacy of the active compound in %) (Meloidogyne incognita): 100%

From US6638979B1, “Imidamide derivatives” (Bayer Aktiengesellschaft, priority 1998, dated 2003)
